These results are taken from patent EP2857388A1, “Azoles containing sulfone” (Grünenthal GmbH, priority 2013, dated 2015).

The assay deals with T1, human B1R (Homo sapiens, UniProt P46663).
T1 construct: expressed in transfected cells; host or cells: CHO K1 cells (Chinese Hamster Ovary), stably transfected
T1 sequence (P46663 1-353): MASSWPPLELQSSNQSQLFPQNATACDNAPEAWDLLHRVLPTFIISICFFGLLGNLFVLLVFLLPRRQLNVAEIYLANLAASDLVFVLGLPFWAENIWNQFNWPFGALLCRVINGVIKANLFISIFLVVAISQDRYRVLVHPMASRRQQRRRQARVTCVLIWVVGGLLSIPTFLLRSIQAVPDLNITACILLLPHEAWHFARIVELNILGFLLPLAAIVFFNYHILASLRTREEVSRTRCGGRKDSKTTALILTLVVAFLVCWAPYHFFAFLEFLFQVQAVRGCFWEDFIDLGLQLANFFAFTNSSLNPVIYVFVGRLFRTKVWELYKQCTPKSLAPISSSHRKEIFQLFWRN
As to the kind of experiment: Functional assay at bradykinin receptor 1 (B1R): Ca2+ fluorescence (Fluo-4) in FLIPR/Novostar, antagonist mode. To be noted: test substance 10 µM; CHO K1 cells stably transfected with human B1R gene (hB1R-Zellen); agonist Lys-Des-Arg9-Bradykinin at EC80; % inhibition relative to maximal achievable inhibition; read-out: % Inhibierung (human B1R) bei 10 µM. In kind it is cell-based. Put shortly:
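Antagonism read as suppression of the Ca2+ rise in Fluo-4-loaded, hB1R-transfected CHO K1 cells when Lys-Des-Arg9-bradykinin (EC80) follows a 6–20 min compound preincubation. Maximal fluorescence counts, measured on FLIPR or Novostar, yield % inhibition relative to maximum; IC50 values come from concentration series run in duplicate or triplicate.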
As to `COc1cc(C)c(S(=O)(=O)Cc2cn(CC(=O)NC3CCN(C)CC3(C)C)nn2)c(C)c1` (centres unmarked) [CC-183, 2-[4-[[(4-Methoxy-2,6-dimethyl-phenyl)sulfonyl]-methyl]-1H-[1,2,3]triazol-1-yl]-N-(1,3,3-trimethyl-piperidin-4-yl)-acetamid], the inhibition at 10 µM was 100%.

With `COc1cc(C)c(S(=O)(=O)Cc2noc(CC(=O)N3CCC(c4ccncc4)CC3)n2)c(C)c1` [SC-41, 2-[3-[[(4-Methoxy-2,6-dimethyl-phenyl)sulfonyl]-methyl]-[1,2,4]oxadiazol-5-yl]-1-(4-pyridin-4-yl-piperidin-1-yl)-ethanon], the inhibition at 10 µM came to 97%.

Take `COc1cc(C)c(S(=O)(=O)Cc2noc(CC(=O)N(C)C3CCN(C(=O)c4ccncc4)CC3)n2)c(C)c1` [SC-27, 2-[3-[[(4-Methoxy-2,6-dimethyl-phenyl)sulfonyl]-methyl]-[1,2,4]oxadiazol-5-yl]-N-methyl-N-[1-(pyridin-4-carbonyl)-piperidin-4-yl]-acetamid]: the inhibition at 10 µM worked out at 98%.

In the case of `COc1cc(C)c(S(=O)(=O)Cc2noc(C(=O)N(C)[C@H]3CCC[C@@H](N4CCN(C)CC4)C3)n2)c(C)c1` [SC-43, 3-[[(4-Methoxy-2,6-dimethyl-phenyl)sulfonyl]-methyl]-N-methyl-N-[(1S,3R)-3-(4-methyl-piperazin-1-yl)-cyclohexyl]-[1,2,4]oxadiazol-5-carbonsäure amid], the inhibition at 10 µM came out at 100%.

Consider `O=C(Cc1nc(CS(=O)(=O)c2cccc(Cl)c2Cl)no1)NC1CCC(N2CCCC2)CC1` (centres unmarked) [CC-71, 2-[3-[[(2,3-Dichlor-phenyl)sulfonyl]-methyl]-[1,2,4]oxadiazol-5-yl]-N-(4-pyrrolidin-1-yl-cyclohexyl)-acetamid], for which the inhibition at 10 µM is 73%.

`COc1cc(C)c(S(=O)(=O)Cc2c(C)nn(CC(=O)N(C)C3CCNCC3(C)C)c2C)c(C)c1` (centres unmarked) [CC-185, N-(3,3-Dimethyl-piperidin-4-yl)-2-[4-[[(4-methoxy-2,6-dimethyl-phenyl)sulfonyl]-methyl]-3,5-dimethyl-1 H-pyrazol-1-yl]-N-methyl-acetamid]: the inhibition at 10 µM came out at 72%.

For the compound `Cc1cc(S(=O)(=O)Cc2noc(CC(=O)NC3CCC(NC4CC4)CC3(C)C)n2)c(C)cc1Cl` (centres unmarked) [CC-57, 2-[3-[[(4-Chlor-2,5-dimethyl-phenyl)sulfonyl]-methyl]-[1,2,4]oxadiazol-5-yl]-N-[4-(cyclopropyl-amino)-2,2-dimethyl-cyclohexyl]-acetamid], the inhibition at 10 µM came to 100%.

Take `Cc1cc(S(=O)(=O)Cc2noc(CC(=O)N(C)C3CCNCC3(C)C)n2)c(C)cc1Cl` (centres unmarked) [CC-100, 2-[3-[[(4-Chlor-2,5-dimethyl-phenyl)sulfonyl]-methyl]-[1,2,4]oxadiazol-5-yl]-N-(3,3-dimethyl-piperidin-4-yl)-N-methyl-acetamid]: the inhibition at 10 µM amounted to 58%.

Take `COc1cc(C)c(S(=O)(=O)Cc2nnc(CC(=O)NC3CCN(C(C)=O)CC3(C)C)o2)c(C)c1` (centres unmarked) [CC-69, N-(1-Acetyl-3,3-dimethyl-piperidin-4-yl)-2-[5-[[(4-methoxy-2,6-dimethyl-phenyl)sulfonyl]-methyl]-[1,3,4]oxadiazol-2-yl]-acetamid]: the inhibition at 10 µM turned out to be 81%.

Consider `COc1cc(C)c(S(=O)(=O)Cc2nc(CC(=O)N(C3CCC(N(C)C)CC3)C3CC3)no2)c(C)c1` (centres unmarked) [CC-116, N-Cyclopropyl-N-(4-dimethylamino-cyclohexyl)-2-[5-[[(4-methoxy-2,6-dimethyl-phenyl)sulfonyl]-methyl]-[1,2,4]oxadiazol-3-yl]-acetamid], for which the inhibition at 10 µM worked out at 100%.

As to `COc1cc(C)c(S(=O)(=O)Cc2noc(CC(=O)NC3CCC(N(C)C)CC3)n2)c(C)c1` (centres unmarked) [CC-05, N-(4-Dimethylamino-cyclohexyl)-2-[3-[[(4-methoxy-2,6-dimethyl-phenyl)sulfonyl]-methyl]-[1,2,4]oxadiazol-5-yl]-acetamid], the inhibition at 10 µM is 100%.

With `COc1cc(C)c(S(=O)(=O)Cc2noc(CC(=O)N3CCN(Cc4ccc(OC)nc4)CC3)n2)c(C)c1` [SC-51, 2-[3-[[(4-Methoxy-2,6-dimethyl-phenyl)sulfonyl]-methyl]-[1,2,4]oxadiazol-5-yl]-1-[4-[(6-methoxy-pyridin-3-yl)-methyl]-piperazin-1-yl]-ethanon], the inhibition at 10 µM is 100%.

In the case of `COc1cc(C)c(S(=O)(=O)Cc2noc(C(=O)N3CCN(Cc4ccnc(N5CCCC5)c4)CC3)n2)c(C)c1` [SC-60, [3-[[(4-Methoxy-2,6-dimethyl-phenyl)sulfonyl]-methyl]-[1,2,4]oxadiazol-5-yl]-[4-[(2-pyrrolidin-1-yl-pyridin-4-yl)-methyl]-piperazin-1-yl]-methanon], the inhibition at 10 µM was 99%.

In the case of `COc1cc(C)c(S(=O)(=O)Cc2c(C)nn(CC(=O)NC3CCC(N4CCCC4)CC3(C)C)c2C)c(C)c1` (centres unmarked) [CC-170, N-(2,2-Dimethyl-4-pyrrolidin-1-yl-cyclohexyl)-2-[4-[[(4-methoxy-2,6-dimethyl-phenyl)sulfonyl]-methyl]-3,5-dimethyl-1H-pyrazol-1-yl]-acetamid], the inhibition at 10 µM came out at 99%.

Consider `COc1cc(C)c(S(=O)(=O)Cc2cn(CC(=O)NC3CCC(N4CCN(C)CC4)CC3(C)C)nn2)c(C)c1` (centres unmarked) [CC-162, N-[2,2-Dimethyl-4-(4-methyl-piperazin-1-yl)-cyclohexyl]-2-[4-[[(4-methoxy-2,6-dimethylphenyl)sulfonyl]-methyl]-1H-[1,2,3]triazol-1-yl]-acetamid], for which the inhibition at 10 µM was determined as 100%.

Take `Cc1cccc(Cl)c1S(=O)(=O)Cc1noc(CC(=O)NC2CCC(NC3CC3)CC2(C)C)n1` (centres unmarked) [CC-95, 2-[3-[[(2-Chlor-6-methyl-phenyl)sulfonyl]-methyl]-[1,2,4]oxadiazol-5-yl]-N-[4-(cyclopropylamino)-2,2-dimethyl-cyclohexyl]-acetamid]: the inhibition at 10 µM was determined as 100%.

As for `COc1cc(C)c(S(=O)(=O)Cc2noc(C(=O)N3CCC4(CCC(Oc5ccncc5)CC4)CC3)n2)c(C)c1` [SC-09, [3-[[(4-Methoxy-2,6-dimethyl-phenyl)sulfonyl]-methyl]-[1,2,4]oxadiazol-5-yl]-(9-pyridin-4-yloxy-3-azaspiro[5.5]undecan-3-yl)-methanon], the inhibition at 10 µM turned out to be 99%.

Turning to `COc1cc(C)c(S(=O)(=O)Cc2nnc(CC(=O)NC3CCC(c4ccncc4)CC3(C)C)o2)c(C)c1` (centres unmarked) [CC-36, N-(2,2-Dimethyl-4-pyridin-4-yl-cyclohexyl)-2-[5-[[(4-methoxy-2,6-dimethyl-phenyl)sulfonyl]-methyl]-[1,3,4]oxadiazol-2-yl]-acetamid], the inhibition at 10 µM came out at 100%.

As to `COc1cc(C)c(S(=O)(=O)Cc2noc(C(=O)NC3CCNCC3(C)C)n2)c(C)c1` (centres unmarked) [CC-17, N-(3,3-Dimethyl-piperidin-4-yl)-3-[[(4-methoxy-2,6-dimethyl-phenyl)sulfonyl]-methyl]-[1,2,4]oxa-diazol-5-carbonsäure amid], the inhibition at 10 µM turned out to be 100%.

Turning to `CC(=O)N1CCC(NC(=O)Cc2nc(CS(=O)(=O)c3cc(C)c(Cl)cc3C)no2)C(C)(C)C1` (centres unmarked) [CC-46, N-(1-Acetyl-3,3-dimethyl-piperidin-4-yl)-2-[3-[[(4-chlor-2,5-dimethyl-phenyl)sulfonyl]-methyl]-[1,2,4]oxadiazol-5-yl]-acetamid], the inhibition at 10 µM was 64%.

For `COc1cc(C)c(S(=O)(=O)Cc2cn(CC(=O)N3CCC(CN4CCN(C)CC4)C3)nn2)c(C)c1` (centres unmarked) [SC-93, 2-[4-[[(4-Methoxy-2,6-dimethyl-phenyl)sulfonyl]-methyl]-1H-[1,2,3]triazol-1-yl]-1-[3-[(4-methyl-piperazin-1-yl)-methyl]-pyrrolidin-1-yl]-ethanon], the inhibition at 10 µM was determined as 100%.

Regarding `COc1cc(C)c(S(=O)(=O)Cc2c(C)nn(CC(=O)NC3CCNCC3(C)C)c2C)c(C)c1` (centres unmarked) [CC-180, N-(3,3-Dimethyl-piperidin-4-yl)-2-[4-[[(4-methoxy-2,6-dimethyl-phenyl)sulfonyl]-methyl]-3,5-dimethyl-1 H-pyrazol-1-yl]-acetamid], the inhibition at 10 µM worked out at 98%.

`COCCN1CCC(NC(=O)Cn2nc(C)c(CS(=O)(=O)c3c(C)cc(OC)cc3C)c2C)C(C)(C)C1` (centres unmarked) [CC-165, 2-[4-[[(4-Methoxy-2,6-dimethyl-phenyl)sulfonyl]-methyl]-3,5-dimethyl-1H-pyrazol-1-yl]-N-[1-(2-methoxy-ethyl)-3,3-dimethyl-piperidin-4-yl]-acetamid]: the inhibition at 10 µM was found to be 100%.

As to `Cc1cccc(Cl)c1S(=O)(=O)Cc1noc(CC(=O)NC2CCNCC2)n1` [CC-90, 2-[3-[[(2-Chlor-6-methyl-phenyl)sulfonyl]-methyl]-[1,2,4]oxadiazol-5-yl]-N-piperidin-4-yl-acetamid], the inhibition at 10 µM worked out at 72%.

In the case of `COc1cc(C)c(S(=O)(=O)Cc2c(C)nn(CC(=O)NC3CCNCC3)c2C)c(C)c1` [CC-173, 2-[4-[[(4-Methoxy-2,6-dimethyl-phenyl)sulfonyl]-methyl]-3,5-dimethyl-1H-pyrazol-1-yl]-N-piperidin-4-yl-acetamid], the inhibition at 10 µM was 85%.

As for `Cc1cc(S(=O)(=O)Cc2noc(CC(=O)NC3CCC(N4CCCC4)CC3(C)C)n2)c(C)cc1Cl` (centres unmarked) [CC-43, 2-[3-[[(4-Chlor-2,5-dimethyl-phenyl)sulfonyl]-methyl]-[1,2,4]oxadiazol-5-yl]-N-(2,2-dimethyl-4-pyrrolidin-1-yl-cyclohexyl)-acetamid], the inhibition at 10 µM was 99%.
